Measured values as given in patent US9459246B2, “Induced intercellular communication” (Nodality, Inc., priority 2009, dated 2016).
Values joined by “and” are separate entries in the source; they are usually repeats but may differ in a detail not shown here. Identical values can stand only once.

Columns and labels:
[1] = system: AML cells; experiment: SCNP of basal and growth-factor modulated signaling in AML patient sample with kinase inhibitors (Example 17, Arm #1); type: cell-based, human; details: patient #1910-017
Text: This study used peripheral blood or bone marrow samples (n=9), which had been previously ficoll separated and cryopreserved. Patient characteristics are shown Table 8. One cryovial per patient was used. Samples were thawed and centrifuged over ficoll to remove dead cells and debris.
Samples were split to perform the following: Arm #1 assessed basal and modulated signaling in the JAK/STAT, PI3K/mTor, and MEK/ERK pathways in the presence and absence of specific kinase inhibitors. Kinase inhibitors were added 1 hr before the addition of the signaling stimulus. Signaling was induced by individual addition of stem cell factor, Flt3 ligand, G-CSF, IL-3, or thrombopoietin (TPO) for a short period of time (5-15 min). Cells were then fixed, permeabilized, and stained with a cocktail of cell surface and phospho-specific antibodies to measure signaling in multiple cell types. Signaling data is calculated in each cell type using a fold-change metric comparing each condition to its basal state: example: (stimulated^+/−inhibitor)/(unstimulated). Also, cells with an apoptotic phenotype were excluded from the signaling analysis by gating.

[2] = system: PBMCs; experiment: SCNP of IFN-α signaling in PBMCs from healthy donors (Examples 5 and 15); type: cell-based, human
Procedure: (§1) Methods: IFN-α-mediated signaling responses were measured by SCNP in PBMC samples from 12 healthy donors. PBMCs were processed for flow cytometry by fixation and permeabilization followed by incubation with fluorochrome-conjugated antibodies that recognize extracellular lineage markers and intracellular signaling molecules. The levels of several phospho-proteins (p-Stat1, p-Stat3, p-Stat4, p-Stat5, p-Stat6, and p-p38) were measured in multiple cell populations (CD14+ monocytes, CD20+ B cells, CD4+ CD3+ T cells, and CD4− CD3+ T cells) at 15 minutes, 1, 2 and 4 hours post IFN-α exposure as described in Example 6.
as §1, with “IFN-α-mediated” for “Methods: IFN-α-mediated”

[3] = system: PBMCs; experiment: SCNP of immunomodulator signaling nodes in PBMC subpopulations of 60 healthy donors (Example 16); type: cell-based, human; details: 15 min
Procedure: Cryopreserved PBMC samples were thawed at 37° C. and resuspended in RPMI 1% FBS before staining with amine aqua viability dye (Invitrogen, Carlsbad, Calif.). Cells were resuspended in RPMI 10% FBS, aliquoted to 100,000 cells per well of 96-well plates, and rested for 2 h at 37° C. prior to 15 min 37° C. incubation with the following modulators: 1000 IU/ml IFNα (PBL, Piscataqay, N.J.); 250 ng/ml IFNγ, 50 ng/ml IL4, 50 ng/ml IL10, α-IgD 5 m/ml (BD, San Jose, Calif.); 50 ng/ml IL2, 50 ng/ml IL6, 50 ng/ml IL27, CD40L 0.5 μg/ml (R&D, Minneapolis, Minn.); R848 5 μg/ml (Invivogen, San Diego, Calif.); LPS 1 μg/ml, PMA 40 nM (Sigma Aldrich, St. Louis, Mo.). After exposure to modulators, cells were fixed with paraformaldehyde and permeabilized with 100% ice-cold methanol as previously described (5). […]
Flow cytometry data was acquired using FACS DIVA software (BD, San Jose, Calif.) on two LSRII Flow Cytometers (BD, San Jose, Calif.). All flow cytometry data were analyzed with WinList (Verity House Software, Topsham, Me.). […]
Two different metrics are utilized in this study to measure the levels of intracellular signaling proteins in either the unmodulated state or in response to modulation. […] The Equivalent Number of Reference Fluorophores (ERFs), fluorescence measurements calibrated by rainbow calibration particles on each 96-well plate, serve as a basis for all metric calculations (6, 7).

[4] = system: whole blood; experiment: SCNP of cytokine-induced JAK/STAT signaling in whole blood of healthy donors (Example 4); type: cell-based, human
Procedure: Method: Whole blood from 11 healthy donors (20-65 yrs, 7 males, 4 females, 8 Caucasians, 2 Hispanics, 1 East Asian) was stimulated at 37° C. in 96-well plates with a low, medium, and high dose of GM-CSF, IFN-α, IL-27 and IL-6, each added separately, as described in Example 5. For each dose, a stimulation time course was run with 6 time points between 3 and 45 minutes. […] The SCNP assay was performed using a fluorophore-labeled antibody cocktail to simultaneously measure signaling in six distinct cell populations, including: neutrophils, CD20+ B cells, CD3+CD4+T cells, CD3+CD4− T cells (CD8 enriched), CD3-CD20-lymphocytes (NK cell enriched), and CD14+ monocytes. The median fluorescent intensity of phospho (p)-STAT1(Y701), p-STAT3(Y705), and p-STAT5(Y694) were measured in each defined cell population for each experimental condition.

[5] = system: AML cells; experiment: Cytotoxic and cytostatic impact of drugs on cultured AML patient cells (Example 17, Arm #2); type: cell-based, human; details: patient #1910-017, 48 hours
Procedure: This study used peripheral blood or bone marrow samples (n=9), which had been previously ficoll separated and cryopreserved. […] One cryovial per patient was used. Samples were thawed and centrifuged over ficoll to remove dead cells and debris. […] After 2 days the cells were then distributed into wells containing various drugs, wherein the cells were cultured for 48 hours. The cultures were fixed, permeabilized, and stained with a cocktail of antibodies to measure complete cell death, apoptosis, S/G2 phase, M-Phase, and DNA damage. These readouts were also obstained from samples cultured separately with individual growth factors (no drugs) for 4 days.

[6] = system: PBMCs; experiment: SCNP signaling in LPS-treated PBMCs with inhibitors (Example 14, FIGS. 22, 23); details: LPS plus inhibitor
[7] = system: PBMCs; experiment: SCNP intracellular signaling readouts in PBMCs treated 24 hours with modulator (SAg or LPS) plus inhibitor (Example 9, FIGS. 18-21); type: cell-based, human
[8] = system: monocytes in PBMC; experiment: Flow cytometry of intracellular cytokines in SAg-modulated PBMC with inhibitors (Example 12); type: cell-based, human
[9] = system: peripheral blood mononuclear cells (PBMC); experiment: SCNP assay of SAg-modulated PBMC signaling over time, with or without cytokine pathway inhibitors (Examples 10, 11, 13); type: cell-based, human
[10] = system: PBMCs; type: cell-based, human; details: PBMC, 24 hours
[11] = system: PBMCs

## Cn1cnc2c(F)c(Nc3ccc(Br)cc3Cl)c(C(=O)NOCCO)cc21 [AZD-6244]
[1]
  SCF induced pAKT: no inhibition
  SCF induced pS6: partial inhibition
  SCF-pERK: complete inhibition

## Cn1c(=O)n(-c2ccc(C(C)(C)C#N)cc2)c2c3cc(-c4cnc5ccccc5c4)ccc3ncc21 [BEZ235]
[1]
  SCF induced pAKT: complete inhibition
  SCF induced pS6: partial inhibition

## CS(=O)(=O)N1CCN(Cc2cc3nc(-c4cccc5[nH]ncc45)nc(N4CCOCC4)c3s2)CC1 [GDC-0941]
[1]
  SCF induced pAKT: partial inhibition
  SCF induced pS6: partial inhibition

## IFN-α
[2]; majority of cell types tested
  peak response for activation of p-Stat4, p-Stat6, and p-p38: 1 h
[2]; most of the cell types
  peak response for activation of p-Stat1, p-Stat3, and p-Stat5: 15 min
[3]; 1000 IU/ml
  pStat activation across immune cell subpopulations: at least one pStat protein was activated in response to IFNα in all of the immune cell subpopulations
[4]; all cell subsets
  time of peak activation of all 3 STAT proteins: 10 min

## Nc1ccn([C@@H]2O[C@H](CO)[C@@H](O)[C@@H]2O)c(=O)n1 [AraC]
[5]
  drug induced apoptosis of myeloid cells: resisted apoptosis

## IL-6: cytokine used as modulator
[4]; CD4+ T cells and monocytes
  time of peak p-STAT1 and p-STAT5: 10 to 15 min
  time of peak p-STAT3 levels: 3 min

## C[C@@H]1CCN(C(=O)CC#N)C[C@@H]1N(C)c1ncnc2[nH]ccc12 [Tofacitinib]
[6]; 2 hours
  p-STAT1 and p-STAT3 induction in lymphocytes: completed abrogated
[6]; later time points
  p-STAT3 in lymphocytes: partially inhibited
[7]; LPS modulation, FIG. 21
  STAT signaling / STAT phosphorylation: inhibited
[7]; SAg modulation, FIG. 19
  all measured signaling: inhibited all signaling except for monocyte p-STAT6
[7]; SAg modulation, FIG. 20
  lymphocyte signaling: inhibited
[8]
  IL-6 in monocytes at other time points: induced IL-6 at the 2 hour and 24 hour time points
  frequency of monocytes expressing TNFα: 46%
  monocytes expressing IL-6 (IL-6+): 44%
[9]
  PI3K pathway activation in lymphocytes: blocked
  STAT induction evoked by SAg modulation: completely abrogated
  overall inhibition of SAg-evoked signaling: broad and potent inhibition of the JAK/STAT pathway and down-stream signaling
  p-STAT5 and PI3K pathway signaling in CD4+ T cells: this inhibition pattern extended to CD4+ T cells
  p-STAT5 and PI3K pathway signaling in CD4− T cells: inhibited
  p-STAT levels in CD4− T cells: restored p-STAT levels to the unmodulated condition
  phosphorylation of STAT1 and STAT5: weakly reduced
[10]; SAg plus inhibitor
  B cell IL-6 production: blocked
  T cell cytokine production (IL-2 and TNF by CD4+ cells): blocked
[10]; inhibitor added
  IL-6 production by monocytes: induced
[10]; monocytes, LPS plus inhibitor
  TNFα production: blocked
[11]
  inhibition: 102% and 79%

## CC(C)C[C@H](NC(=O)[C@H](Cc1ccccc1)NC(=O)c1cnccn1)B(O)O [bortezomib]
[5]
  cell death and cytostasis: induced considerable levels of cell death and cytostasis

## C[C@@H]1CCN(C(=O)CC#N)C[C@@H]1N(C)c1ncnc2[nH]ccc12 [CP-690550]
[1]
  IL-3 signaling: complete inhibition
  TPO signaling: partial inhibition
  high basal level of p-STAT5 signaling: inhibited

B1: IFNγ: cytokine used as modulator (protein, UniProt P01579 24-161, looked up)
Interferon gamma: QDPYVKEAENLKKYFNAGHSDVADNGTLFLGILKNWKEESDRKIMQSQIVSFYFKLFKNFKDDQSIQKSVETIKEDMNVKFFNSNKKKRDDFEKLTNYSVTDLNVQRKAIHELIQVMAELSPAAKTGKRKRSQMLFRG
[3]; 250 ng/ml
  pStat1 level by cell type: produced the highest level of pStat1 in monocytes, lower levels in B cells, and a much weaker pStat1 response in T cells

B2: IL-27: cytokine used as modulator (protein, UniProt Q8NEV9 29-243; Q14213 21-229, looked up)
Interleukin-27 subunit alpha: FPRPPGRPQLSLQELRREFTVSLHLARKLLSEVRGQAHRFAESHLPGVNLYLLPLGEQLPDVSLTFQAWRRLSDPERLCFISTTLQPFHALLGGLGTQGRWTNMERMQLWAMRLDLRDLQRHLRFQVLAAGFNLPEEEEEEEEEEEEERKGLLPGALGSALQGPAQVSWPQLLSTYRLLHSLELVLSRAVRELLLLSKAGHSVWPLGFPTLSPQP
Interleukin-27 subunit beta: RKGPPAALTLPRVQCRASRYPIAVDCSWTLPPAPNSTSPVSFIATYRLGMAARGHSWPCLQQTPTSTSCTITDVQLFSMAPYVLNVTAVHPWGSSSSFVPFITEHIIKPDPPEGVRLSPLAERQLQVQWEPPGSWPFPEIFSLKYWIRYKRQGAARFHRVGPIEATSFILRAVRPRARYYVQVAAQDLTDYGELSDWSLPATATMSLGK
[4]; T cell subsets, B cells, and monocytes
  time of peak activation of p-STAT1 and p-STAT3: 30 min
